In patent publication US9695155B2, “Herbicidal substituted pyrimidinyloxy benzene compounds” (E. I. DU PONT DE NEMOURS AND COMPANY, priority 2013, dated 2017):

Tests used:
lambsquarters = assay: Test C postemergence; format: in vivo, Chenopodium album; conditions: for Plant response rating (0 to 100), Lambsquarters: postemergence; for Plant response rating, Lambsquarters: Postemergence, scale 0 to 100 (0 no effect, 100 complete control)
In short: (§1)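 Injury was assessed visually against controls 13 to 15 days after application, with 0 meaning no effect and 100 full control; missing entries are shown as a dash. Preemergence sprays hit seeded loam–sand soil, postemergence sprays hit 1- to 4-leaf plants.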

soybean = assay: Test C postemergence; format: in vivo, Glycine max; conditions: for Plant response rating (0 to 100), Soybean: postemergence; for Plant response rating, Soybean: Postemergence, scale 0 to 100 (0 no effect, 100 complete control)
In short: as §1

Heteranthera limosa = assay: Test B flooded paddy test; format: in vivo; conditions: Flood, 250 g ai/ha; 0 to 100 scale where 0 is no effect and 100 is complete control
In short: (§2)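 Scores from 0 (no effect) to 100 (complete control) are visual comparisons with controls, taken 13 to 15 days after compound was applied into floodwater 3 cm deep around 2-leaf plants.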

Italian ryegrass = assay: Test C postemergence; format: in vivo, Lolium multiflorum; conditions: for Plant response rating (0 to 100), Ryegrass, Italian: postemergence; for Plant response rating, Ryegrass, Italian: Postemergence, scale 0 to 100 (0 no effect, 100 complete control)
From the text: (§3) Seeds of plant species selected from blackgrass (Alopecurus myosuroides), Italian ryegrass (Lolium multiflorum), wheat, winter (winter wheat, Triticum aestivum), galium (catchweed bedstraw, Galium aparine), corn (Zea mays), large (Lg) crabgrass (Digitaria sanguinalis), giant foxtail (Setaria faberii), johnsongrass (Sorghum halepense), lambsquarters (Chenopodium album), morningglory (Ipomoea coccinea), yellow nutsedge (Cyperus esculentus), pigweed (Amaranthus retroflexus), ragweed (common ragweed, Ambrosia elatior), soybean (Glycine max), barnyardgrass (Echinochloa crus-galli), oilseed rape (Brassica napus), waterhemp (common waterhemp, Amaranthus rudis), kochia (Kochia scoparia), wild oat (Avena fatua), surinam grass (Brachiaria decumbens), foxtail, green (green foxtail, Setaria viridis), goosegrass (Eleusine indica), bromegrass, downy (downy bromegrass, Bromus tectorum), nightshade (eastern black nightshade, Solanum ptycanthum), cocklebur (common cocklebur, Xanthium strumarium), cupgrass, woolly (woolly cupgrass, Eriochloa villosa), bermudagrass (Cynodon dactylon), sunflower, (common oilseed sunflower, Helianthus annuus), Russian thistle (Salsola kali), and velvetleaf (Abutilon theophrasti) were planted into a blend of loam soil and sand and treated preemergence with test chemicals formulated in a non-phytotoxic solvent mixture which included a surfactant.
(§4) At the same time, plants selected from these crop and weed species and also barley, winter (winter barley, Hordeum vulgare), windgrass (Apera spica-venti), chickweed (common chickweed, Stellaria media), deadnettle (henbit deadnettle, Lamium amplexicaule), and canarygrass (littleseed canarygrass, Phalaris minor) were planted in pots containing Redi-Earth® planting medium (Scotts Company, 14111 Scottslawn Road, Marysville, Ohio 43041) comprising spaghnum peat moss, vermiculite, wetting agent and starter nutrients and treated with postemergence applications of test chemicals formulated in the same manner. Plants ranged in height from 2 to 18 cm (1- to 4-leaf stage) for postemergence treatments. Treated plants and controls were maintained in a greenhouse for 13 to 15 days, after which time all species were compared to controls and visually evaluated. Plant response ratings, summarized in Table C, are based on a scale of 0 to 100 where 0 is no effect and 100 is complete control. A dash (-) response means no test result.

blackgrass = assay: Test C postemergence; format: in vivo, Alopecurus myosuroides; conditions: for Plant response rating, Blackgrass: Postemergence
From the text: as §3, §4

pigweed = assay: Test C postemergence; format: in vivo, Amaranthus retroflexus; conditions: for Plant response rating (0 to 100), Pigweed: postemergence; for Plant response rating, Pigweed: Postemergence, scale 0 to 100 (0 no effect, 100 complete control)
In short: as §1

rice = assay: Test B flooded paddy test; format: in vivo, Oryza sativa; conditions: Flood, 250 g ai/ha; 0 to 100 scale where 0 is no effect and 100 is complete control
In short: as §2

morningglory = assay: Test A postemergence; format: in vivo, Ipomoea spp.
In short: (§5)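 Scoring: eye-based comparison with untreated controls, 0 for no effect through 100 for complete control, at about day 10. Treatments: directed soil spray preemergence; foliar spray postemergence on 2–10 cm plants at the one- to two-leaf stage. Medium: loam soil with sand.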

barnyardgrass = assay: Test C postemergence; format: in vivo, Echinochloa crus-galli; conditions: for Plant response rating, Barnyardgrass: Postemergence
From the text: as §3, §4

corn = assay: Test A preemergence; format: in vivo, Zea mays
In short: as §5

kochia = assay: Test C postemergence; format: in vivo, Kochia scoparia; conditions: for Plant response rating, Kochia: Postemergence
From the text: as §3, §4

[1] = 16 g ai/ha, postemergence, visual rating, scale 0 to 100 (0 no effect, 100 complete control), 13 to 15 days
[2] = 31 g ai/ha, scale 0 to 100 (0 no effect, 100 complete control), 13 to 15 days
[3] = 62 g ai/ha, scale 0 to 100 (0 no effect, 100 complete control)
[4] = 1000 g ai/ha, 0 to 100 scale, 0 no effect, 100 complete control
[5] = 8 g ai/ha, 0 is no effect, 100 is complete control
[6] = 16 g ai/ha, 0 is no effect, 100 is complete control
[7] = 4 g ai/ha, postemergence, 0 is no effect, 100 is complete control
[8] = 8 g ai/ha, postemergence, 0 is no effect, 100 is complete control
[9] = 16 g ai/ha, postemergence, 0 is no effect, 100 is complete control
[10] = 125 g ai/ha, 0 to 100 scale where 0 is no effect and 100 is complete control

SMILES: Clc1cnc(Oc2cccc(Br)c2-n2cc(Br)cn2)nc1 [Compound 65]
- Plant response rating (0 to 100), Lambsquarters (lambsquarters; 125 g ai/ha): 90
- Plant response rating, Lambsquarters (lambsquarters; 31 g ai/ha, 13 to 15 days): 80
- Plant response rating, Lambsquarters (lambsquarters; 62 g ai/ha): 75
- Plant response rating (0 to 100), Soybean (soybean; 125 g ai/ha): 85
- Plant response rating, Soybean (soybean; 31 g ai/ha, 13 to 15 days): 40
- Plant response rating, Soybean (soybean; 62 g ai/ha): 60
- Plant response rating, Ducksalad (Heteranthera limosa): 95
- Plant response rating (0 to 100), Ryegrass, Italian (Italian ryegrass; 125 g ai/ha): 5
- Plant response rating, Ryegrass, Italian (Italian ryegrass; 31 g ai/ha, 13 to 15 days): 0
- Plant response rating, Ryegrass, Italian (Italian ryegrass; 62 g ai/ha): 0
- Blackgrass plant response rating (blackgrass; [1]): 0
- Plant response rating (0 to 100), Blackgrass (blackgrass; 125 g ai/ha, postemergence): 15
- Plant response rating, Blackgrass (blackgrass; [2]): 10
- Plant response rating, Blackgrass (blackgrass; [3]): 40
- Plant response rating (0 to 100), Pigweed (pigweed; 125 g ai/ha): 98
- Plant response rating, Pigweed (pigweed; 31 g ai/ha, 13 to 15 days): 90
- Plant response rating, Pigweed (pigweed; 62 g ai/ha): 95
- Plant response rating, Rice (rice): 0
- Plant response rating, Morningglory (morningglory; [4]): 100
- Barnyardgrass plant response rating (barnyardgrass; [1]): 5
- Plant response rating (0 to 100), Barnyardgrass (barnyardgrass; 125 g ai/ha, postemergence): 10
- Plant response rating, Barnyardgrass (barnyardgrass; [2]): 5
- Plant response rating, Barnyardgrass (barnyardgrass; [3]): 5
- Plant response rating, Corn (corn; [4]): 40
- Kochia plant response rating (kochia; [1]): 90
- Plant response rating (0 to 100), Kochia (kochia; 125 g ai/ha, postemergence): 98
- Plant response rating, Kochia (kochia; [2]): 90
- Plant response rating, Kochia (kochia; [3]): 98

SMILES: CC(=NO)c1cn(-c2c(Br)cccc2Oc2ncc(Cl)cn2)nn1 [Compound 115]
- Plant response rating (0 to 100), Lambsquarters (lambsquarters; [5]): 10
- Plant response rating (0 to 100), Lambsquarters (lambsquarters; [6]): 10
- Plant response rating (0 to 100), Soybean (soybean; [5]): 5
- Plant response rating (0 to 100), Soybean (soybean; [6]): 10
- Plant response rating, Ducksalad (Heteranthera limosa): 70
- Plant response rating (0 to 100), Ryegrass, Italian (Italian ryegrass; [5]): 0
- Plant response rating (0 to 100), Ryegrass, Italian (Italian ryegrass; [6]): 0
- Plant response rating (0 to 100), Blackgrass (blackgrass; [7]): 0
- Plant response rating (0 to 100), Blackgrass (blackgrass; [8]): 0
- Plant response rating (0 to 100), Blackgrass (blackgrass; [9]): 0
- Plant response rating, Blackgrass (blackgrass; [2]): 5
- Plant response rating (0 to 100), Pigweed (pigweed; [5]): 15
- Plant response rating (0 to 100), Pigweed (pigweed; [6]): 50
- Plant response rating, Rice (rice): 0
- Plant response rating, Morningglory (morningglory; [4]): 100
- Plant response rating (0 to 100), Barnyardgrass (barnyardgrass; [7]): 0
- Plant response rating (0 to 100), Barnyardgrass (barnyardgrass; [8]): 0
- Plant response rating (0 to 100), Barnyardgrass (barnyardgrass; [9]): 0
- Plant response rating, Barnyardgrass (barnyardgrass; [2]): 5
- Plant response rating, Corn (corn; [4]): 60
- Plant response rating (0 to 100), Kochia (kochia; [8]): 0
- Plant response rating (0 to 100), Kochia (kochia; [9]): 0

SMILES: N#Cc1cccc(Oc2ncc(Cl)cn2)c1-n1cnc(Br)c1 [Compound 74]
- Plant response rating (0 to 100), Lambsquarters (lambsquarters; 125 g ai/ha): 75
- Plant response rating (0 to 100), Lambsquarters (lambsquarters; 250 g ai/ha): 85
- Plant response rating, Lambsquarters (lambsquarters; 31 g ai/ha, 13 to 15 days): 40
- Plant response rating, Lambsquarters (lambsquarters; 62 g ai/ha): 75
- Plant response rating (0 to 100), Soybean (soybean; 125 g ai/ha): 75
- Plant response rating (0 to 100), Soybean (soybean; 250 g ai/ha): 80
- Plant response rating, Soybean (soybean; 31 g ai/ha, 13 to 15 days): 40
- Plant response rating, Soybean (soybean; 62 g ai/ha): 65
- Plant response rating, Ducksalad (Heteranthera limosa): 40
- Plant response rating (0 to 100), Ryegrass, Italian (Italian ryegrass; 125 g ai/ha): 0
- Plant response rating (0 to 100), Ryegrass, Italian (Italian ryegrass; 250 g ai/ha): 5
- Plant response rating, Ryegrass, Italian (Italian ryegrass; 31 g ai/ha, 13 to 15 days): 0
- Plant response rating, Ryegrass, Italian (Italian ryegrass; 62 g ai/ha): 0
- Plant response rating (0 to 100), Blackgrass (blackgrass; 125 g ai/ha, postemergence): 0
- Plant response rating (0 to 100), Blackgrass (blackgrass; 250 g ai/ha, postemergence): 5
- Plant response rating, Blackgrass (blackgrass; [2]): 0
- Plant response rating, Blackgrass (blackgrass; [3]): 0
- Plant response rating (0 to 100), Pigweed (pigweed; 125 g ai/ha): 65
- Plant response rating (0 to 100), Pigweed (pigweed; 250 g ai/ha): 80
- Plant response rating, Pigweed (pigweed; 31 g ai/ha, 13 to 15 days): 40
- Plant response rating, Pigweed (pigweed; 62 g ai/ha): 60
- Plant response rating, Rice (rice): 0
- Plant response rating, Morningglory (morningglory; [10]): 80
- Plant response rating, Morningglory (morningglory; 500 g ai/ha, 0 to 100 scale where 0 is no effect and 100 is complete control): 100
- Plant response rating (0 to 100), Barnyardgrass (barnyardgrass; 125 g ai/ha, postemergence): 5
- Plant response rating (0 to 100), Barnyardgrass (barnyardgrass; 250 g ai/ha, postemergence): 15
- Plant response rating, Barnyardgrass (barnyardgrass; [2]): 0
- Plant response rating, Barnyardgrass (barnyardgrass; [3]): 5
- Plant response rating, Corn (corn; [10]): 0
- Corn plant response rating (corn; 500 g ai/ha, 0 to 100 scale, 0 no effect, 100 complete control, approx. 10 days): 40
- Plant response rating (0 to 100), Kochia (kochia; 125 g ai/ha, postemergence): 90
- Plant response rating (0 to 100), Kochia (kochia; 250 g ai/ha, postemergence): 90
- Plant response rating, Kochia (kochia; [2]): 80
- Plant response rating, Kochia (kochia; [3]): 90
